Assays:
Settings in all cases: 48 h
NOMO1 [1] = assay: cell viability relative to DMSO control; higher = less cytotoxic
Procedure, shortened: (§1)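 Leukemia cells (NOMO1 or SEM, 500 cells/well; P12-Ichikawa, 1000 cells/well) were seeded in 5 μl in 1536-well plates after at least four passages of adaptation to each medium. They received library compounds in DMSO by pin dosing, 11 threefold points from 47 μM to 0.79 nM. Luminescence with CellTiter-Glo One was read after 48 h at 37°C. Viability is stated per plate relative to DMSO wells, with cell-free wells as background.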

P12-Ichikawa [2] = assay: as above
Procedure, shortened: as §1

SEM cells [3] = assay: as above
Procedure, shortened: as §1

NOMO1 [4] = assay: AUC of viability dose-response curve (% viability x log10 dose units); higher = less sensitive
Procedure, shortened: (§2)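 Over 48 h at 37°C, leukemia cells in 1536-well plates (500 or 1000 cells/well), adapted to each medium, received library compounds in DMSO at 11 threefold doses from 47 μM to 0.79 nM. CellTiter-Glo One luminescence, normalised per plate to DMSO and cell-free wells, was fitted by a four-parameter log-logistic function of log10 dose. The area under the curve was then integrated by trapezoidal rule, after scaling curves above full viability and removing those that failed quality control.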

P12-Ichikawa [5] = assay: as above
Procedure, shortened: as §2

SEM cells [6] = assay: as above
Procedure, shortened: as §2

CC[C@H](/C=C/[C@@H](C)[C@H]1CC[C@H]2[C@@H]3CC=C4C[C@@H](O)CC[C@]4(C)[C@H]3CC[C@]12C)C(C)C
cell viability [%]
Settings	NOMO1 [1]	P12-Ichikawa [2]	SEM cells [3]
HPLM + 10% dialyzed FBS, 0.000781 µM	104	100	100
HPLM + 10% dialyzed FBS, 0.00234 µM	112	109	77.3
HPLM + 10% dialyzed FBS, 0.00702 µM	110	94.3	94.8
HPLM + 10% dialyzed FBS, 0.0211 µM	98.9	99.3	94.8
HPLM + 10% dialyzed FBS, 0.0632 µM	104	104	86.4
HPLM + 10% dialyzed FBS, 0.19 µM	102	101	108
HPLM + 10% dialyzed FBS, 0.569 µM	97.3	99.5	81.7
HPLM + 10% dialyzed FBS, 1.71 µM	96.7	93.2	100
HPLM + 10% dialyzed FBS, 5.12 µM	80.6	87.7	95.3
HPLM + 10% dialyzed FBS, 15.4 µM	73.7	85.9	79.1
HPLM + 10% dialyzed FBS, 46.1 µM	58.2	87.5	89.3
RPMI 5 mM glucose + 10% FBS, 0.000781 µM	89.3	92.9	102
RPMI 5 mM glucose + 10% FBS, 0.00234 µM	94.3	94.3	83.8
RPMI 5 mM glucose + 10% FBS, 0.00702 µM	101	97.1	103
RPMI 5 mM glucose + 10% FBS, 0.0211 µM	105	95.9	95.2
RPMI 5 mM glucose + 10% FBS, 0.0632 µM	92.9	105	101
RPMI 5 mM glucose + 10% FBS, 0.19 µM	90.7	96.3	96.8
RPMI 5 mM glucose + 10% FBS, 0.569 µM	88.8	94.9	93.3
RPMI 5 mM glucose + 10% FBS, 1.71 µM	92.8	91.3	104
RPMI 5 mM glucose + 10% FBS, 5.12 µM	81.1	89.6	105
RPMI 5 mM glucose + 10% FBS, 15.4 µM	81.3	83.9	87.4
RPMI 5 mM glucose + 10% FBS, 46.1 µM	78.7	93.7	84.2
RPMI 5 mM glucose + 10% dialyzed FBS, 0.000781 µM	98.2	92.7	98
RPMI 5 mM glucose + 10% dialyzed FBS, 0.00234 µM	89.4	95.2	92.7
RPMI 5 mM glucose + 10% dialyzed FBS, 0.00702 µM	91.1	93	93.3
RPMI 5 mM glucose + 10% dialyzed FBS, 0.0211 µM	84.5	87.3	104
RPMI 5 mM glucose + 10% dialyzed FBS, 0.0632 µM	96.1	91.8	111
RPMI 5 mM glucose + 10% dialyzed FBS, 0.19 µM	89.5	94.6	90.6
RPMI 5 mM glucose + 10% dialyzed FBS, 0.569 µM	86	88.4	93.5
RPMI 5 mM glucose + 10% dialyzed FBS, 1.71 µM	95.1	87.8	108
RPMI 5 mM glucose + 10% dialyzed FBS, 5.12 µM	94.5	87	94.1
RPMI 5 mM glucose + 10% dialyzed FBS, 15.4 µM	68.3	85.2	87.6
RPMI 5 mM glucose + 10% dialyzed FBS, 46.1 µM	69.6	86.6	93.5

AUC of viability dose-response curve
Settings	NOMO1 [4]	P12-Ichikawa [5]	SEM cells [6]
HPLM + 10% dialyzed FBS	427	456	438
RPMI 5 mM glucose + 10% FBS	434	449	458
RPMI 5 mM glucose + 10% dialyzed FBS	421	429	463

N[S+]([O-])(=O)C1=CC=C(NC/2=C/C(=O)C3=CC=CC=C3C2=O)C=C1
cell viability [%]
Settings	NOMO1 [1]	P12-Ichikawa [2]	SEM cells [3]
HPLM + 10% dialyzed FBS, 0.000781 µM	100	102	97.3
HPLM + 10% dialyzed FBS, 0.00234 µM	126	115	106
HPLM + 10% dialyzed FBS, 0.00702 µM	111	119	109
HPLM + 10% dialyzed FBS, 0.0211 µM	132	114	108
HPLM + 10% dialyzed FBS, 0.0632 µM	119	129	115
HPLM + 10% dialyzed FBS, 0.19 µM	121	120	110
HPLM + 10% dialyzed FBS, 0.569 µM	134	123	123
HPLM + 10% dialyzed FBS, 1.71 µM	111	118	110
HPLM + 10% dialyzed FBS, 5.12 µM	93.2	117	82.6
HPLM + 10% dialyzed FBS, 15.4 µM	100	118	97.8
HPLM + 10% dialyzed FBS, 46.1 µM	85.4	115	71.3
RPMI 5 mM glucose + 10% FBS, 0.000781 µM	121	110	96.2
RPMI 5 mM glucose + 10% FBS, 0.00234 µM	123	112	103
RPMI 5 mM glucose + 10% FBS, 0.00702 µM	131	108	99.4
RPMI 5 mM glucose + 10% FBS, 0.0211 µM	151	112	98.6
RPMI 5 mM glucose + 10% FBS, 0.0632 µM	131	112	87.5
RPMI 5 mM glucose + 10% FBS, 0.19 µM	147	124	83.9
RPMI 5 mM glucose + 10% FBS, 0.569 µM	129	125	92.2
RPMI 5 mM glucose + 10% FBS, 1.71 µM	132	126	92.5
RPMI 5 mM glucose + 10% FBS, 5.12 µM	126	111	53.4
RPMI 5 mM glucose + 10% FBS, 15.4 µM	123	124	57.2
RPMI 5 mM glucose + 10% FBS, 46.1 µM	102	100	46.3
RPMI 5 mM glucose + 10% dialyzed FBS, 0.000781 µM	–	107	122
RPMI 5 mM glucose + 10% dialyzed FBS, 0.00234 µM	–	114	74.4
RPMI 5 mM glucose + 10% dialyzed FBS, 0.00702 µM	–	113	108
RPMI 5 mM glucose + 10% dialyzed FBS, 0.0211 µM	–	120	105
RPMI 5 mM glucose + 10% dialyzed FBS, 0.0632 µM	–	117	106
RPMI 5 mM glucose + 10% dialyzed FBS, 0.19 µM	–	121	120
RPMI 5 mM glucose + 10% dialyzed FBS, 0.569 µM	–	128	103
RPMI 5 mM glucose + 10% dialyzed FBS, 1.71 µM	–	124	108
RPMI 5 mM glucose + 10% dialyzed FBS, 5.12 µM	–	121	71.3
RPMI 5 mM glucose + 10% dialyzed FBS, 15.4 µM	–	131	85.3
RPMI 5 mM glucose + 10% dialyzed FBS, 46.1 µM	–	105	50.7

AUC of viability dose-response curve
Settings	NOMO1 [4]	P12-Ichikawa [5]	SEM cells [6]
HPLM + 10% dialyzed FBS	446	464	448
RPMI 5 mM glucose + 10% FBS	465	467	399
RPMI 5 mM glucose + 10% dialyzed FBS	461	459	436

CCC1(c2ccccc2)C(=O)NCNC1=O
cell viability [%]
Settings	HPLM + 10% dialyzed FBS	RPMI 5 mM glucose + 10% FBS	RPMI 5 mM glucose + 10% dialyzed FBS
P12-Ichikawa [2], 0.000781 µM	103	104	94.5
P12-Ichikawa [2], 0.00234 µM	114	111	109
P12-Ichikawa [2], 0.00702 µM	118	122	118
P12-Ichikawa [2], 0.0211 µM	120	128	115
P12-Ichikawa [2], 0.0632 µM	120	134	120
P12-Ichikawa [2], 0.19 µM	118	127	116
P12-Ichikawa [2], 0.569 µM	121	129	117
P12-Ichikawa [2], 1.71 µM	119	126	118
P12-Ichikawa [2], 5.12 µM	116	142	126
P12-Ichikawa [2], 15.4 µM	118	143	121
P12-Ichikawa [2], 46.1 µM	119	131	117
SEM cells [3], 0.000781 µM	94.6	100	91.6
SEM cells [3], 0.00234 µM	104	112	115
SEM cells [3], 0.00702 µM	105	108	123
SEM cells [3], 0.0211 µM	78.7	76.1	84.4
SEM cells [3], 0.0632 µM	102	106	108
SEM cells [3], 0.19 µM	110	109	120
SEM cells [3], 0.569 µM	114	108	117
SEM cells [3], 1.71 µM	117	103	115
SEM cells [3], 5.12 µM	116	116	114
SEM cells [3], 15.4 µM	106	113	117
SEM cells [3], 46.1 µM	122	117	109

AUC of viability dose-response curve
Settings	NOMO1 [4]	P12-Ichikawa [5]	SEM cells [6]
HPLM + 10% dialyzed FBS	442	471	441
RPMI 5 mM glucose + 10% FBS	448	453	445
RPMI 5 mM glucose + 10% dialyzed FBS	471	466	452
